Entries after “also recorded” stand apart in the source; their conditions may differ. Read-outs that look alike come from different tables or passages of the source.

The test system of data set [1] is 8 mm diameter round wound. The note with it: cited from earlier work.
The test system of data set [2] is cerebral lesion. The note with it: 100 μM in 2% collagen within HFM; cited from earlier work.
For data set [3] the following is noted: 0.05% Brij-78, corneal application, cited from earlier work; for peptide in aqueous humor / peptide in vitreous humor: 20 and 40 minutes.
Data set [4] deals with C6 glioma cell line. Conditions: cited from earlier work.
The test system of data set [5] is 8 mm wide circular excisional skin injuries. The note with it: 100 μM in 30% pluronic gel; 10-14 day time course; cited from earlier work.
For data set [6], the system named is implants. As to the kind of experiment: Inflammatory infiltrate at implants, myeloperoxidase stain. The data set is classed as in vivo. The note with it: 24 hour time point. An excerpt: In attempting to quantify the neutrophil infiltrate using a myeloperoxidase stain, the inventors observed that some of the cells stained darker than others. Upon further investigation, these cells were not neutrophils as but rather were macrophages.

Data set [7] has as its target T1, GST-Cx43 CT (Rattus norvegicus, UniProt P08050).
T1 construct: pGEX-6-P2 Cx43 CT amino acids 255-382; made in house; host or cells: E. coli BL21
Description: EDC cross-linking of kinase reaction mixtures, Cx43 CT. Type of data set: binding. The note with it: 5, 10 and 25 μM. The protocol: To characterize the interaction between the Cx43 CT substrate and peptides, the in vitro kinase assay was performed as above with modification and the constituents then subjected to a cross-linking reaction. The assay buffer used was 20 mM 3-(N-morpholino) propanesulfonic acid (MOPS), pH 7.2. All other reagents present in the kinase reaction were maintained as described above. The reaction was allowed to proceed at 37° C. for 15 minutes. Afterwards, the carbodiimide crosslinker 1-Ethyl-3-(3-dimethylaminopropyl) carbodiimide HCl (EDC) (Thermo, 22980) was added to each solution for a final concentration of 20 mM. The solution was allowed to cross-link for one hour at room temperature. The reaction was stopped by the addition of 4×LDS loading buffer, boiled for 5 minutes and subsequently separated by PAGE. The resulting gel was stained in Coomassie brilliant blue (Sigma, B0770) for two hours and destained in a solution of 4% methanol 7% acetic acid overnight. Gel bands were subsequently excised for mass spectrometric analysis. For the direct interaction between protein and peptides, PBS, pH 7.5 was used as the coupling buffer. The protein (50 μg/ml) and peptide (25 μM) were allowed to react at room temperature for one hour before EDAC was added to the reaction mixture. The reaction was Western blotted for Cx43, GST or NeutroAvidin. […]

The subject of data set [8] is cornea. Conditions: rat, in vivo; cited from earlier work.
Data set [9] concerns porcine kidney. The note with it: 100 μm in Belzer's solution, on ice 24 h; cited from earlier work.
In data set [10] the test system is cancer stem cells CSCs. Conditions: CSCs derived from patient tumors; cited from earlier work.
The subject of data set [11] is Cx43-Hela cells. Description: Cx43 and ZO-1 immunofluorescent labeling. Conditions: 10 μM for 2, 4, 24, or 48 hours. The data set is classed as cell-based. The protocol: Given that the 10UM concentration of peptide was not toxic to cells, the inventors treated Cx43-Hela cells with 10 μM JM1 or JM2 for 2, 4, 24, or 48 hours followed by fixation and immunofluorescent labeling of Cx43 and ZO-1. Said peptides can be loaded into the provided EVs and can elicit results similar to those observed for naked peptide as follows. […] However, the most striking effects were on ZO-1 organization. In control cells ZO-1 localized to cell borders, often at sites of small, finger-like projections between the cells. Cytoplasmic ZO-1 was also notable. In JM-treated cells a strong contrast in the ratio of cell border to cytoplasmic ZO-1 was found, with relative levels at cell borders being increased over controls. […] There was also a noticeable increase in the number of cells per area of field, supporting the earlier observation that JM2 treated cells appeared to proliferate and survive at an increased rate.

Data set [12] concerns the target T2, Cx43 hemichannel (Homo sapiens, UniProt P17302).
T2 construct: expressed in transfected cells; host or cells: HeLa (Cx43-HeLa)
Conditions: 50 μM for 2 hrs; cited from earlier work.

T2 sequence (P17302 2-382 limits assumed): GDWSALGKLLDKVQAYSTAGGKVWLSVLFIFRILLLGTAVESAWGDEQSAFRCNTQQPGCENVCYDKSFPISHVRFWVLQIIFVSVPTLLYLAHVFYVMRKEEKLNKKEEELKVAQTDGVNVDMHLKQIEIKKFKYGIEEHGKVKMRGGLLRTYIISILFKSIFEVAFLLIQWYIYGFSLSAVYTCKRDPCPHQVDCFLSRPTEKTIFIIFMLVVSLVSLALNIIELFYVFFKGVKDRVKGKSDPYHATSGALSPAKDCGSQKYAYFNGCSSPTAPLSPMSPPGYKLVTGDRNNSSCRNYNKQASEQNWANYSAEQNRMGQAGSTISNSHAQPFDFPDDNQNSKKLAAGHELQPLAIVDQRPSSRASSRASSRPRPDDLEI
T1 sequence (P08050 255-382): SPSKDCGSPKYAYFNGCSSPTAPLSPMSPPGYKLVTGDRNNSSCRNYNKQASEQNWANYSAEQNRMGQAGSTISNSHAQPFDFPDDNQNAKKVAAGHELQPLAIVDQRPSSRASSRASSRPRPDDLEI

Take RQPKIWFPNRRKPWKKRPRPDDLEI [alpha CT1]: the scar size result in data set [1] (150 μM peptide, collagen gel, 30 days) is “significantly (p<0.05) smaller than the controls”. Moreover, in data set [1] (rat, in vivo), the wound closure rate entry is on record as “consistent significantly faster closure rates than the other 4 wounds”. Besides, the “density of GFAP-positive astrocytes” value in [2] is “much lower density of GFAP-positive astrocytes”. In addition, in [3], the “peptide in aqueous humor” value is on record as “detectable level of ACT1 in the internal fluids of the anterior chamber”, the “peptide in vitreous humor” value is recorded as “Lower levels of ACT1 could also be detected” and the “peptide in retinal pigment epithelial layer” value is reported as “ACT1 was detectable in the retinal pigment epithelial layer”. In data set [3] (listed as ACTI), the “peptide in aqueous humor” value was “detectable level of ACTI in the internal fluids of the anterior chamber”, the “peptide in vitreous humor” value is on record as “Lower levels of peptide could also be detected” and the “peptide in retinal pigment epithelial layer” value was “peptide was detectable in the retinal pigment epithelial layer”. In data set [4], the adhesive properties result is recorded as “did not change in response to peptide treatment” and the morphology result is recorded as “altered morphology”. Moreover, the “healing of excisional injuries” value in [5] was “closed faster, were less inflamed in appearance, healed faster and scarred less”. Also, in data set [6], the “type of inflammatory infiltrate” value is “the primary inflammatory infiltrate was macrophages”. In addition, the “EDC cross-linking to Cx43 CT” value in data set [7] is reported as “covalently linked by EDC to Cx43 CT in a concentration-dependent manner”. Further, the “corneal closure and regeneration” value in [8] was “faster closure and more complete corneal regeneration than control corneas”. In data set [9], the Cx43 staining result was “Punctate Cx43 staining in the membrane (gap junctions) were preserved” and the nitrotyrosine staining entry is on record as “no changes in nitrotyrosine staining in the presence of ACT1 peptide”.
For the sequence VFFKGVKDRVKGRSD [JM2], the CSC survival entry in [10] is “decreases CSC survival in vitro and in vivo”. For the same sequence, the “Cx43 and ZO-1 localization” value in data set [11] is on record as “greater cytoplasmic Cx43 was observed; also recorded: well defined cell-cell interfaces”. Also, the hemichannel activity entry in data set [12] is “significantly reduced hemichannel activity”.

These data come from patent publication US20250221936A1, “ENGINEERED HEMICHANNELS, ENGINEERED VESICLES, AND USES THEREOF” (VIRGINIA TECH INTELLECTUAL PROPERTIES, INC., priority 2018, published 2025).
